According to US6780616B1, “Antibiotic caprazamycins and process for producing the same” (Zaidan Hojin Biseibutsu Kagaku Kenkyu Kai Corp., priority 1999, dated 2004):
In brackets after ≈: the same amount, converted by molar mass.

Experiments:
[1] = system: Mycobacterium tuberculosis H37Rv NIHJ-1633; assay: Antibacterial spectrum, serial dilution in Middlebrook 7H9 liquid medium; type: cell-based; parameters: unit not given here
Protocol: (§1) The antibacterial spectrum of each of caprazamycins A, B, C, E and F against Mycobacterium tuberculosis, and against atypical acid-fast bacteria, Mycobacterium avium kirchberg and Mycobacterium intracellulare, were measured in a Middlebrook 7H9 liquid medium by a serial dilution method. At the same time, antibacterial spectra of rifampicin (RMP) and isonicotinic acid hydrazide (INH) (as comparative drug) against the above-mentioned acid-fast bacteria were measured by the same serial dilution method.

[2] = system: Mycobacterium intracellulare E-1 NIHJ-1618; assay: as above; type: cell-based; parameters: unit not given here
Protocol: as §1

[3] = system: Mycobacterium avium kirchberg NIHJ-1605; assay: as above; type: cell-based; parameters: unit not given here
Protocol: as §1

[4] = system: Mycobacterium smegmatis ATCC607 ST-R (streptothricin-resistant); assay: Antibacterial spectrum, serial dilution on 1% glycerin-supplemented nutrient agar; type: cell-based; conditions: Mycolicibacterium smegmatis, ATCC607, read-out: Minimum growth inhibitory concentration
Protocol: (§2) The antibacterial spectrum of caprazamycin A against a variety of microorganisms were measured on a 1% glycerin-supplemented nutrient agar medium by a serial dilution method according to the standard method as provided by Japanese Society of Chemotherapy.
(§3) The antibacterial spectrum of caprazamycin B against a variety of microorganisms were measured on a 1% glycerin-supplemented nutrient agar medium by a serial dilution method according to the standard method as provided by Japanese Society of Chemotherapy.
(§4) The antibacterial spectrum of caprazamycin C against a variety of microorganisms were measured on a 1% glycerin-supplemented nutrient agar medium by a serial dilution method according to the standard method as provided by Japanese Society of Chemotherapy.
(§5) The antibacterial spectrum of caprazamycin E against a variety of microorganisms were measured on a 1% glycerin-supplemented nutrient agar medium by a serial dilution method according to the standard method as provided by Japanese Society of Chemotherapy.
(§6) The antibacterial spectrum of caprazamycin F against a variety of microorganisms were measured on a 1% glycerin-supplemented nutrient agar medium by a serial dilution method according to the standard method as provided by Japanese Society of Chemotherapy.

[5] = system: Mycobacterium fortuitum; assay: as above; type: cell-based; conditions: Mycolicibacterium fortuitum, read-out: Minimum growth inhibitory concentration
Protocol: as §2, §3, §4, §5, §6

[6] = system: Mycobacterium smegmatis ATCC607 CPM-R (capreomycin-resistant); assay: as above; type: cell-based; conditions: Mycolicibacterium smegmatis, ATCC607, read-out: Minimum growth inhibitory concentration
Protocol: as §2, §3, §4, §5, §6

[7] = system: Mycobacterium smegmatis ATCC607; assay: as above; type: cell-based; conditions: Mycolicibacterium smegmatis, read-out: Minimum growth inhibitory concentration
Protocol: as §2, §3, §4, §5, §6

[8] = system: Mycobacterium smegmatis ATCC607 KM-R (kanamycin-resistant); assay: as above; type: cell-based; conditions: Mycolicibacterium smegmatis, ATCC607, read-out: Minimum growth inhibitory concentration
Protocol: as §2, §3, §4, §5, §6

[9] = system: Mycobacterium smegmatis ATCC607 VM-R (viomycin-resistant); assay: as above; type: cell-based; conditions: Mycolicibacterium smegmatis, ATCC607, read-out: Minimum growth inhibitory concentration
Protocol: as §2, §3, §4, §5, §6

[10] = system: Mycobacterium smegmatis ATCC607 PM-R (paromomycin-resistant); assay: as above; type: cell-based; conditions: Mycolicibacterium smegmatis, ATCC607, read-out: Minimum growth inhibitory concentration
Protocol: as §2, §3, §4, §5, §6

[11] = system: Mycobacterium smegmatis ATCC607 RFP-R (rifampicin-resistant); assay: as above; type: cell-based; conditions: Mycolicibacterium smegmatis, ATCC607, read-out: Minimum growth inhibitory concentration
Protocol: as §2, §3, §4, §5, §6

[12] = system: Mycobacterium phlei; assay: as above; type: cell-based; conditions: Mycolicibacterium phlei, read-out: Minimum growth inhibitory concentration
Protocol: as §2, §3, §4, §5, §6

[13] = system: Mycobacterium smegmatis ATCC607 SM-R (streptomycin-resistant); assay: as above; type: cell-based; conditions: Mycolicibacterium smegmatis, ATCC607, read-out: Minimum growth inhibitory concentration
Protocol: as §2, §3, §4, §5, §6

[14] = system: Mycobacterium vaccae ATCC15483; assay: as above; type: cell-based; conditions: Mycolicibacterium vaccae, read-out: Minimum growth inhibitory concentration
Protocol: as §2, §3, §4, §5, §6

[15] = system: Micrococcus luteus PCI1001; assay: Antibacterial spectrum, serial dilution on Müller-Hinton agar; type: cell-based; conditions: read-out: Minimum growth inhibitory concentration
Protocol: (§7) The antibacterial spectrum of caprazamycin B against a variety of microorganisms other than the microorganisms as specified in Table 2 were measured on Müller-Hinton agar medium by a serial dilution method according to the standard method as provided by Japanese Society of Chemotherapy.

[16] = system: Corynebacterium bovis 1810; assay: as above; type: cell-based; conditions: read-out: Minimum growth inhibitory concentration
Protocol: as §7

[17] = system: Staphylococcus aureus FDA209P; assay: as above; type: cell-based; conditions: read-out: Minimum growth inhibitory concentration
Protocol: as §7

[18] = system: Bacillus cereus ATCC10702; assay: as above; type: cell-based; conditions: read-out: Minimum growth inhibitory concentration
Protocol: as §7

[19] = system: Staphylococcus aureus Smith; assay: as above; type: cell-based; conditions: read-out: Minimum growth inhibitory concentration
Protocol: as §7

[20] = system: Micrococcus luteus FDA16; assay: as above; type: cell-based; conditions: read-out: Minimum growth inhibitory concentration
Protocol: as §7

[21] = system: Staphylococcus aureus MS9610 (multiple drug-resistant); assay: as above; type: cell-based; conditions: read-out: Minimum growth inhibitory concentration
[22] = system: Staphylococcus aureus MS16526 (methicillin-resistant); assay: as above; type: cell-based; conditions: read-out: Minimum growth inhibitory concentration
[23] = system: Escherichia coli NIHJ; assay: as above; type: cell-based; conditions: read-out: Minimum growth inhibitory concentration
[24] = system: Bacillus subtilis PCI1219; assay: as above; type: cell-based; conditions: read-out: Minimum growth inhibitory concentration
[25] = system: Bacillus anthracis; assay: microbe, parasite or virus in culture; type: cell-based; conditions: read-out: Minimum growth inhibitory concentration
[26] = system: Bacillus subtilis NRRL B-558; assay: Antibacterial spectrum, serial dilution on Müller-Hinton agar; type: cell-based; conditions: NRRLB558, read-out: Minimum growth inhibitory concentration
[27] = system: mice (ICR type, 4 weeks-aged, male); assay: Toxicity in mice after intravenous administration; type: in vivo; conditions: intravenously, 75 mg/kg
Source text: The dose of a caprazamycin of the general formula (I) or a salt thereof as an active ingredient in the composition of this invention may depend upon the nature of bacterial infections to be treated, a purpose of the therapeutic treatment, degree of the patient's conditions and so on. However, an optimal dose of a caprazamycin can be decided by experts through suitable preliminary tests.

[28] = system: Staphylococcus aureus No.5 (methicillin-resistant); assay: Antibacterial spectrum, serial dilution on Müller-Hinton agar; type: cell-based; conditions: read-out: Minimum growth inhibitory concentration
[29] = system: Staphylococcus aureus No.17 (methicillin-resistant); assay: as above; type: cell-based; conditions: read-out: Minimum growth inhibitory concentration
[30] = system: Staphylococcus aureus TY-04282 (methicillin-resistant); assay: as above; type: cell-based; conditions: read-out: Minimum growth inhibitory concentration

| Structure (SMILES) | Minimum Inhibitory Concentration of Compound tested against Test Bacteria [1] | Minimum Inhibitory Concentration of Compound tested against Test Bacteria [2] | Minimum Inhibitory Concentration of Compound tested against Test Bacteria [3] | MIC [4] | MIC [5] | MIC [6] | MIC [7] | MIC [8] | MIC [9] | MIC [10] | MIC [11] | MIC [12] | MIC [13] | MIC [14] | also measured |
| --- | --- | --- | --- | --- | --- | --- | --- | --- | --- | --- | --- | --- | --- | --- | --- |
| CCCCCCCCCCCCC(CC(=O)OC1CN(C)C(C(OC2OC(CN)C(O)C2O)C2OC(n3ccc(=O)[nH]c3=O)C(O)C2O)C(=O)N(C)C1C(=O)O)OC(=O)CC(C)CC(=O)OC1OC(C)C(OC)C(OC)C1OC (stereo not shown) [Caprazamycin C, caprazamycin C] | 0.78 | 0.78 | <0.025 | 1.56 µg/mL (≈ 1.38 µM) | 12.5 µg/mL (≈ 11 µM) | 1.56 µg/mL (≈ 1.38 µM) | 1.56 µg/mL (≈ 1.38 µM) | 0.78 µg/mL (≈ 0.689 µM) | 1.56 µg/mL (≈ 1.38 µM) | 1.56 µg/mL (≈ 1.38 µM) | 1.56 µg/mL (≈ 1.38 µM) | 1.56 µg/mL (≈ 1.38 µM) | 1.56 µg/mL (≈ 1.38 µM) | 0.39 µg/mL (≈ 0.344 µM) | – |
| CCCCCCCCCCCCCC(CC(=O)OC1CN(C)C(C(OC2OC(CN)C(O)C2O)C2OC(n3ccc(=O)[nH]c3=O)C(O)C2O)C(=O)N(C)C1C(=O)O)OC(=O)CC(C)CC(=O)OC1OC(C)C(OC)C(OC)C1OC (stereo not shown) [Caprazamycin A, caprazamycin A] | 1.56 | 0.78 | <0.025 | 0.78 µg/mL (≈ 0.68 µM) | 6.25 µg/mL (≈ 5.45 µM) | 0.78 µg/mL (≈ 0.68 µM) | 1.56 µg/mL (≈ 1.36 µM) | 0.78 µg/mL (≈ 0.68 µM) | 0.78 µg/mL (≈ 0.68 µM) | 1.56 µg/mL (≈ 1.36 µM) | 0.78 µg/mL (≈ 0.68 µM) | 1.56 µg/mL (≈ 1.36 µM) | 1.56 µg/mL (≈ 1.36 µM) | 0.2 µg/mL (≈ 0.174 µM) | – |
| COC1C(C)OC(OC(=O)CC(C)CC(=O)OC(CCCCCCCCC(C)C)CC(=O)OC2CN(C)C(C(OC3OC(CN)C(O)C3O)C3OC(n4ccc(=O)[nH]c4=O)C(O)C3O)C(=O)N(C)C2C(=O)O)C(OC)C1OC (stereo not shown) [Caprazamycin F, caprazamycin F] | – | 1.56 | 0.1 | 0.78 µg/mL (≈ 0.698 µM) | 12.5 µg/mL (≈ 11.2 µM) | 0.78 µg/mL (≈ 0.698 µM) | 1.56 µg/mL (≈ 1.4 µM) | 0.78 µg/mL (≈ 0.698 µM) | 1.56 µg/mL (≈ 1.4 µM) | 0.78 µg/mL (≈ 0.698 µM) | 0.78 µg/mL (≈ 0.698 µM) | 1.56 µg/mL (≈ 1.4 µM) | 1.56 µg/mL (≈ 1.4 µM) | 0.78 µg/mL (≈ 0.698 µM) | – |
| CCCCCCCCCCCC(CC(=O)OC1CN(C)C(C(OC2OC(CN)C(O)C2O)C2OC(n3ccc(=O)[nH]c3=O)C(O)C2O)C(=O)N(C)C1C(=O)O)OC(=O)CC(C)CC(=O)OC1OC(C)C(OC)C(OC)C1OC (stereo not shown) [Caprazamycin E, caprazamycin E] | 0.78 | 0.78 | <0.025 | 0.78 µg/mL (≈ 0.698 µM) | 12.5 µg/mL (≈ 11.2 µM) | 0.39 µg/mL (≈ 0.349 µM) | 1.56 µg/mL (≈ 1.4 µM) | 0.78 µg/mL (≈ 0.698 µM) | 0.39 µg/mL (≈ 0.349 µM) | 1.56 µg/mL (≈ 1.4 µM) | 0.78 µg/mL (≈ 0.698 µM) | 1.56 µg/mL (≈ 1.4 µM) | 1.56 µg/mL (≈ 1.4 µM) | 0.39 µg/mL (≈ 0.349 µM) | – |
| COC1C(C)OC(OC(=O)CC(C)CC(=O)OC(CCCCCCCCCCC(C)C)CC(=O)OC2CN(C)C(C(OC3OC(CN)C(O)C3O)C3OC(n4ccc(=O)[nH]c4=O)C(O)C3O)C(=O)N(C)C2C(=O)O)C(OC)C1OC (stereo not shown) [Caprazamycin B, caprazamycin B] | 1.56 | 0.78 | <0.025 | 1.56 µg/mL (≈ 1.36 µM) | 50 µg/mL (≈ 43.6 µM) | 1.56 µg/mL (≈ 1.36 µM) | 3.13 µg/mL (≈ 2.73 µM) | 1.56 µg/mL (≈ 1.36 µM) | 1.56 µg/mL (≈ 1.36 µM) | 1.56 µg/mL (≈ 1.36 µM) | 3.13 µg/mL (≈ 2.73 µM) | 3.13 µg/mL (≈ 2.73 µM) | 3.13 µg/mL (≈ 2.73 µM) | 0.39 µg/mL (≈ 0.34 µM) | MIC [15]: 3.13 µg/mL (≈ 2.73 µM); MIC [16]: 3.13 µg/mL (≈ 2.73 µM); MIC [17]: 1.56 µg/mL (≈ 1.36 µM); MIC [18]: 3.13 µg/mL (≈ 2.73 µM); MIC [19]: 3.13 µg/mL (≈ 2.73 µM); MIC [20]: 3.13 µg/mL (≈ 2.73 µM); MIC [21]: 3.13 µg/mL (≈ 2.73 µM); MIC [22]: 3.13 µg/mL (≈ 2.73 µM); MIC [23]: 100 µg/mL (≈ 87.2 µM); MIC [24]: 6.25 µg/mL (≈ 5.45 µM); MIC [25]: 0.78 µg/mL (≈ 0.68 µM); MIC [26]: 12.5 µg/mL (≈ 10.9 µM); Toxicity [27]: did not exhibit any toxicity; MIC [28]: 3.13 µg/mL (≈ 2.73 µM); MIC [29]: 6.25 µg/mL (≈ 5.45 µM); MIC [30]: 6.25 µg/mL (≈ 5.45 µM) |
